# Measurements: paper PMC9851200, “Multiparameter phenotypic screening for endogenous TFEB and TFE3 translocation identifies novel chemical series modulating lysosome function” (Autophagy, 2022)
# Like-named read-outs stand apart in the source and are kept apart here.
# Legend:
# Conditions in all cases: PKIS2 primary screening
# [1] = tested on: SH-SY5Y cells; assay: Nuclear count from microscopy images (cellular growth and toxicity); also: reference of the scale not given here
# [2] = tested on: endogenous TFEB; assay: TFEB nuclear translocation, immunocytochemistry high-content imaging; type: cell-based
# [3] = tested on: SH-SY5Y cells; also: reference of the scale not given here
# [4] = tested on: SH-SY5Y cells; assay: AK (adenylate kinase) release ToxiLight cytotoxicity assay; also: reference of the scale not given here
# [5] = tested on: endogenous TFE3; assay: TFE3 nuclear translocation, immunocytochemistry high-content imaging; type: cell-based
Structure (SMILES),Nuclear Count [1],TFEB % [2],DQ Intensity [3],DQ Spot [3],AK [4],TFE3 % [5],DQ Intensity ([3]; DQ Red BSA intensity),DQ Spot ([3]; DQ Red BSA spot count)
Cc1ccc(CC(=O)N2CCc3cc(-c4cn(C)c5ncnc(N)c45)ccc32)cc1 [UNC10225490A],101.02,5.80%,104.55,111.62,123.53,14.69%,,
CSc1nn2c(=O)cc(N3CCOCC3)nc2n1Cc1cccc(C(F)(F)F)c1C [UNC10225417A],112.74,3.46%,90.90,96.76,90.24,6.63%,,
Oc1cc(Nc2ccnc3cc(I)ccc23)ccc1F [UNC10225441A],104.34,12.97%,,,73.72,8.03%,124.88,110.03
CCOC(=O)N1CCC(n2cnc(-c3ccc(F)cc3)c2-c2ccnc(N)n2)CC1 [UNC10225132A],129.88,10.30%,90.15,96.37,115.58,8.29%,,
CN1CCN(Cc2ccc(NC(=O)Nc3ccc(N(C)c4ccnc(Nc5ccc(CS(C)(=O)=O)cc5)n4)cc3)cc2)CC1 [GW827654],120.62,6.08%,,,74.74,10.58%,92.35,93.05
Cc1cn2c(=O)cc(N3CCOCC3)nc2n1Cc1cccc(Cl)c1Cl [UNC10225415A],117.08,6.30%,62.82,98.81,43.75,10.27%,,
COc1cccc2c(-c3ccncc3)c(-c3ccc(F)cc3)nn12 [UNC10225305A],99.48,7.57%,,,95.93,7.73%,96.09,98.66
O=C(NCCNc1ccnc(NCc2ccc(F)cc2)n1)c1cc2ccccc2s1 [GSK1379944],79.28,8.85%,,,378.86,12.27%,122.34,117.48
Clc1cc(Cl)cc(Nc2ccnc(Nc3cc(Cl)cc(Cl)c3)n2)c1 [GSK175726],91.70,3.77%,,,105.62,10.08%,98.51,117.48
COc1cc(Nc2nccc(N3CCC(NS(=O)(=O)c4ccc(NC(C)=O)cc4)CC3)n2)cc(OC)c1OC [GSK1379825],107.84,12.82%,,,75.82,12.08%,96.24,89.82
COC(=O)Nc1nc2ccc(Oc3ccc(NC(=O)Nc4cc(C(F)(F)F)ccc4Cl)cc3)cc2[nH]1 [GW697465],70.87,5.88%,,,89.89,30.84%,71.39,100.12
Nc1nc(-c2ccc3c(N)n[nH]c3c2)cc(N2CCCCC2)n1 [GSK2228768],85.37,3.41%,,,117.34,12.52%,114.62,125.41
O=S(=O)(c1ccc(-c2ccnc3[nH]ccc23)cc1)N1CCCC1 [UNC10225462A],103.12,5.43%,,,140.08,10.23%,72.77,93.44
COc1ccc(-c2nc3n(c2-c2ccncc2)CCC3)cc1 [UNC10225334B],89.36,9.58%,,,75.67,11.14%,91.69,94.15
COc1cc(Nc2nccc(N3CCC(NC(=O)c4cccc(NC(C)=O)c4)C3)n2)cc(OC)c1OC (stereo not drawn) [GSK1379754],143.24,3.28%,,,115.02,7.67%,91.71,95.86
Cl.NS(=O)(=O)c1cccc(Nc2cc(-c3ccc(F)cc3)n[nH]2)c1 [UNC10112764A],80.49,1.30%,,,125.30,14.81%,118.54,103.52
CC(C)N1CCC(n2cnc(-c3ccc(F)cc3)c2-c2ccnc(N)n2)CC1 [UNC10225258A],83.47,5.04%,110.79,99.41,107.69,12.02%,,
Cc1nn2c(=O)cc(N3CCO[C@H](C)C3)nc2n1Cc1cccc(Cl)c1Cl [UNC10225190A],111.47,6.05%,96.99,93.26,79.35,6.51%,,

Structure (SMILES),Nuclear Count [1],TFEB % [2],DQ Intensity [3],DQ Spot [3],AK [4],TFE3 % [5],DQ Intensity ([3]; DQ Red BSA intensity),DQ Spot ([3]; DQ Red BSA spot count)
COc1cc(Nc2nccc(N3CCC(NC(=O)Nc4ccc5c(c4)OCO5)C3)n2)cc(OC)c1OC (stereo not drawn) [GSK1379766],95.41,4.47%,,,118.87,9.31%,63.32,78.55
Cl.Fc1ccccc1COc1ccc(Nc2ncnc3ccc(-c4nnc(C(F)(F)F)o4)cc23)cc1Cl [UNC10225422A],121.67,3.54%,,,104.09,5.47%,100.75,98.62
CCC(CC)(CC)n1cnc2c(N)ncnc21 [UNC10225302A],100.18,11.64%,92.29,100.17,115.78,9.37%,,
NCCC(NC(=O)c1cc(Br)c(-c2ccnc3[nH]ccc23)s1)c1ccccc1.O=C(O)C(F)(F)F.O=C(O)C(F)(F)F (stereo not drawn) [UNC10225503A],121.43,3.19%,,,81.01,15.14%,126.00,127.76
COc1ccc(NC(=O)c2ccc(-c3cc(-c4nnc(C)o4)ccc3C)cc2)cc1 [UNC10225475A],99.11,3.99%,95.33,98.26,97.70,13.72%,,
CS(=O)(=O)CCNCc1nc(-c2ccc3ncnc(Nc4ccc5c(cnn5Cc5ccccc5)c4)c3c2)cs1.Cl.Cl [UNC10225115A],105.59,3.62%,,,99.64,17.35%,104.52,112.81
NCCNS(=O)(=O)c1ccc(-c2ccnc3[nH]ccc23)cc1 [UNC10225023B],135.88,3.92%,,,72.23,14.03%,110.40,102.49
COc1ccc(CNC(=O)NC2CCN(c3ccnc(Nc4ccc(OC)cc4)n3)C2)cc1 (stereo not drawn) [GSK1379727],118.16,4.74%,,,96.08,11.01%,79.60,81.20
COc1ccc(NC(=O)Nc2ccc(C)c(-c3ccc(C(=O)Nc4ccncc4)cc3)c2)cc1 [UNC10225445A],96.32,6.73%,64.07,80.56,81.64,17.87%,,
COC(=O)Nc1nc2ccc(Oc3ccc(NC(=O)Nc4cc(C(F)(F)F)ccc4F)cc3)cc2n1C [GW692089],60.83,7.12%,,,128.42,18.60%,156.96,122.99
CN1CCN(CCCNc2nccc(-c3c(-c4ccc(F)cc4)nn4cc(C(F)(F)F)ccc34)n2)CC1 [UNC10225376A],97.99,5.73%,120.10,102.44,108.97,16.03%,,
Cl.c1ccc(-c2n[nH]cc2-c2ccnc(-c3ccc(CN4CCOCC4)cc3)c2)nc1 [UNC10225251A],93.63,7.11%,,,76.02,7.21%,80.00,92.60
COC(=O)Nc1nc2ccc(Oc3ccc(CC(=O)Nc4cc(C(F)(F)F)ccc4F)cc3)cc2[nH]1 [GW680903],109.57,2.10%,,,72.57,12.77%,59.92,85.78
Cc1c(O)cccc1Nc1ccnc2ccc(C(F)(F)F)cc12.Cl [UNC10225099A],127.64,9.28%,,,102.37,5.56%,122.68,95.32
Cc1cc(N2Cc3ccccc3C2)nc(Nc2ccc(S(=O)(=O)N3CCOCC3)cc2)n1 [GSK1669917],138.98,1.55%,,,117.66,8.23%,64.14,76.32
CC(C(=O)NC1CCN(c2ccnc(Nc3ccc(F)cc3)n2)C1)c1ccc(Cl)cc1 (stereo not drawn) [GSK1379713],84.41,6.54%,,,94.01,10.33%,153.18,124.60
Cn1cc(-c2ccc3c(c2)CCN3C(=O)Cc2cccc(F)c2)c2c(N)ncnc21 [UNC10225297A],104.97,6.82%,118.40,112.51,109.17,15.69%,,
